PubChem BioAssay AID1963839 (Molecular Pharmacology Branch, DTP, NCI, 2024)

System: 817829-284-R-J1-PDC complex spheroid viability
Assay: Anticancer human tumor 817829-284-R-J1-PDC patient-derived colon adenocarcinoma cell line growth inhibition [POLQ]
Settings: for IC50: curve of first compound; for viability, T/C: stronger effect = lower value
Summary of the method: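 Complex spheroid viability model combining PDC tumour cells with endothelial (HUVEC) and MSC stromal cells. Novobiocin, ART-558 or RP6685 were tested singly and in combination with standard and investigational anticancer drugs. Each was titrated in half-log steps from near clinical Cmax, or from 10 microM where Cmax was unknown.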
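Also: spheroids exposed to compounds for 7 days.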
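For viability, T/C in this document: 100% = DMSO vehicle-treated spheroids.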

CC(=O)O[C@H]1C(=O)[C@@]2(C)[C@H]([C@H](OC(=O)c3ccccc3)[C@]3(O)C[C@H](OC(=O)[C@H](O)[C@@H](NC(=O)c4ccccc4)c4ccccc4)C(C)=C1C3(C)C)[C@]1(OC(C)=O)CO[C@@H]1C[C@@H]2O + Nc1ccc(C#CCN(C(=O)Cc2ncc(C(F)(F)F)cc2C(F)(F)F)c2ccc(F)cc2)nn1
IC50 (second compound 0.0316 µM): < 9.49 nM | IC50 (second compound 0.1 µM): < 9.49 nM | IC50 (second compound 0.316 µM): < 9.49 nM | IC50 (second compound 1 µM): < 9.49 nM | IC50 (second compound 3.16 µM): < 9.49 nM | IC50 (second compound 10 µM): < 9.49 nM | viability, T/C (second compound 0.0316 µM, first compound 0.00949 µM): 5.03% | viability, T/C (second compound 0.0316 µM, first compound 0.03 µM): 3.67% | viability, T/C (second compound 0.0316 µM, first compound 0.0949 µM): 3.6% | viability, T/C (second compound 0.0316 µM, first compound 0.3 µM): 4.54% | viability, T/C (second compound 0.0316 µM, first compound 0.949 µM): 3.38% | viability, T/C (second compound 0.0316 µM, first compound 3 µM): 3.49% | viability, T/C (second compound 0.1 µM, first compound 0.00949 µM): 4.54% | viability, T/C (second compound 0.1 µM, first compound 0.03 µM): 3.69% | viability, T/C (second compound 0.1 µM, first compound 0.0949 µM): 3.4% | viability, T/C (second compound 0.1 µM, first compound 0.3 µM): 3.32% | viability, T/C (second compound 0.1 µM, first compound 0.949 µM): 3.65% | viability, T/C (second compound 0.1 µM, first compound 3 µM): 3.64% | viability, T/C (second compound 0.316 µM, first compound 0.00949 µM): 4.71% | viability, T/C (second compound 0.316 µM, first compound 0.03 µM): 3.72% | viability, T/C (second compound 0.316 µM, first compound 0.0949 µM): 3.26% | viability, T/C (second compound 0.316 µM, first compound 0.3 µM): 3.47% | viability, T/C (second compound 0.316 µM, first compound 0.949 µM): 3.51% | viability, T/C (second compound 0.316 µM, first compound 3 µM): 3.52% | viability, T/C (second compound 1 µM, first compound 0.00949 µM): 4.2% | viability, T/C (second compound 1 µM, first compound 0.03 µM): 4.2% | viability, T/C (second compound 1 µM, first compound 0.0949 µM): 3.64% | viability, T/C (second compound 1 µM, first compound 0.3 µM): 3.16% | viability, T/C (second compound 1 µM, first compound 0.949 µM): 3.49% | viability, T/C (second compound 1 µM, first compound 3 µM): 3.91% | viability, T/C (second compound 3.16 µM, first compound 0.00949 µM): 3.91% | viability, T/C (second compound 3.16 µM, first compound 0.03 µM): 3.81% | viability, T/C (second compound 3.16 µM, first compound 0.0949 µM): 3.99% | viability, T/C (second compound 3.16 µM, first compound 0.3 µM): 3.89% | viability, T/C (second compound 3.16 µM, first compound 0.949 µM): 3.75% | viability, T/C (second compound 3.16 µM, first compound 3 µM): 3.61% | viability, T/C (second compound 10 µM, first compound 0.00949 µM): 4.68% | viability, T/C (second compound 10 µM, first compound 0.03 µM): 3.73% | viability, T/C (second compound 10 µM, first compound 0.0949 µM): 3.81% | viability, T/C (second compound 10 µM, first compound 0.3 µM): 3.76% | viability, T/C (second compound 10 µM, first compound 0.949 µM): 3.38% | viability, T/C (second compound 10 µM, first compound 3 µM): 3.83%
